Values quoted from earlier work, collected in article PMC7318222, “A Family of Water‐Immiscible, Dipolar Aprotic, Diamide Solvents from Succinic Acid” (Chemsuschem, 2020).
Marks after values point to notes of the source that are not given here.

Legend:
[1] = design: key to C (carcinogenicity) / M (mutagenicity) / R (reproduction toxicity) / S (skin sensitization): −: absence of property; +: presence of property; ?: no prediction possible; details: cited from earlier work
[2] = design: method as in PubChem; details: data obtained from PubChem; ref PubChem; cited from earlier work
[3] = exp: conclusion based on reliable experimental data

| SMILES | M (mutagenicity) [1, 3] | R (reproduction toxicity) [1, 3] | S (skin sensitization) [1, 3] | M (mutagenicity), in words ([1]; experimental data) | R (reproduction toxicity), in words ([1]; experimental data) | S (skin sensitization), in words ([1]; experimental data) | Log P (o/w) [2] | C (carcinogenicity) [1, 3] | C (carcinogenicity), in words ([1]; experimental data) |
| --- | --- | --- | --- | --- | --- | --- | --- | --- | --- |
| CCCCN1CCCC1=O [NBP, N‐Butylpyrrolidinone, reference compound] | − (exp) | − (exp) | − (exp) | negative | negative | negative | – | – | – |
| CN1CCCC1=O [NMP, N‐methyl‐2‐pyrrolidone, reference compound] | − (exp) | + (exp) | − (exp) | negative | positive | negative | −0.38^[d] | − (exp) | negative |
